Experimental data reported in patent US12612413B2, “Heteroaryl compounds as inhibitors of programmed necrosis pathway, composition and method using the same” (ACCRO BIOSCIENCE INC., priority 2020, dated 2026).
Structures can show the parent of a compound that is named as a salt.

What follows are compounds tested on HT-29 cells (assay: HT-29 cell viability (necroptosis) assay). Settings: Homo sapiens, TNF-α (40 ng/mL), Smac mimetic (100 nM), z-VAD (20 μM), 40 h, from survival rate curve.
Assay type: cell-based
Procedure: (§1) Human colon cancer HT-29 cells were used in a necroptosis assay. For this assay, HT-29 cells were added to 96-well plates. The compounds at different concentrations (0.3, 1.0, 3.0, 10.0, 20.0 μM) were then preprocessed for two hours. TNF-α (40 ng/mL), Smac mimetic (100 nM) and z-VAD (20 μM) were added, and the mixture was incubated for 40 h. Quantitative analysis of cell viability was conducted. DMSO pretreatment group was used as a negative control. Concentration for 50% of maximal effect was calculated according to the curve of the survival rate measured at different concentrations. FIG. 1 depicts the EC50 curves of compound A16.

Row | SMILES | EC50 [nM]
1 | CC1=Cc2cc3nccc(Nc4ccc5scnc5c4)c3cc2S1(=O)=O [Compound A3] | 620
2 | Cn1ccc(C2=CS(=O)(=O)c3cc4c(Nc5ccc6scnc6c5)ccnc4cc32)n1 [Compound A33] | 350
3 | CC(C)OC1=CS(=O)(=O)c2cc3c(Nc4ccc5scnc5c4)ccnc3cc21 [Compound A14] | 280
4 | C=C1c2cc3nccc(Nc4ccc5scnc5c4)c3cc2S(=O)(=O)C1(C)C [Compound B8, 8-(benzo[d]thiazol-5-ylamino)-2,2-dimethyl-3-methylene-2,3-dihydrothieno[2,3-g]quinoline 1,1-dioxide] | 930
5 | O=S1(=O)C=C(c2ccccc2)c2cc3nccc(Nc4ccc5scnc5c4)c3cc21 [Compound A22] | 450
6 | O=C1CS(=O)(=O)c2cc3c(Nc4ccc5scnc5c4)ccnc3cc21 [Compound B3, 8-(benzo[d]thiazol-5-ylamino)thieno[2,3-g]quinolin-3(2H)-one 1,1-dioxide hydrochloride] | 3240
7 | CCC1=Cc2cc3nccc(Nc4ccc5scnc5c4)c3cc2S1(=O)=O [Compound A4] | 980
8 | CC1=Cc2cc3nccc(Nc4cc(O)ccc4F)c3cc2S1(=O)=O [Compound A52] | 260
9 | O=S1(=O)C=C(c2ccc(O)cc2)c2cc3nccc(Nc4ccc5scnc5c4)c3cc21 [Compound A24] | 500
10 | Cc1cc(C2=CS(=O)(=O)c3cc4c(Nc5ccc6scnc6c5)ccnc4cc32)n(C)n1 [Compound A32] | 1200
11 | O=S1(=O)C=C(c2cccnc2)c2cc3nccc(Nc4ccc5scnc5c4)c3cc21 [Compound A27] | 490
12 | COCCOC1=CS(=O)(=O)c2cc3c(Nc4ccc5scnc5c4)ccnc3cc21 [Compound A17] | 260
13 | O=S1(=O)C=C(OC2COC2)c2cc3nccc(Nc4ccc5scnc5c4)c3cc21 [Compound A118] | 290
14 | CC1(C)C(=O)c2cc3nccc(Nc4cc(O)c(F)cc4F)c3cc2S1(=O)=O [Compound B15] | 720
15 | CC1(C)C(=O)c2cc3nccc(Nc4cc(O)ccc4F)c3cc2S1(=O)=O [Compound B14] | 320
16 | CC1(C)C(=O)c2cc3nccc(Nc4ccc5scnc5c4)c3cc2S1(=O)=O [Compound B4, 8-(benzo[d]thiazol-5-ylamino)-2,2-dimethylthieno[2,3-g]quinolin-3(2H)-one 1,1-dioxide] | 2080
17 | O=S1(=O)C=C(OC2CCOC2)c2cc3nccc(Nc4ccc5scnc5c4)c3cc21 (centres unmarked) [Compound A115] | 280
18 | N#Cc1ccc(C2=CS(=O)(=O)c3cc4c(Nc5ccc6scnc6c5)ccnc4cc32)cc1 [Compound A25] | 300
19 | O=S1(=O)CC2(CCCO2)c2cc3nccc(Nc4ccc5scnc5c4)c3cc21 (centres unmarked) [Compound B27] | 2200
20 | NCCOC1=CS(=O)(=O)c2cc3c(Nc4ccc5scnc5c4)ccnc3cc21 [Compound A110] | 2080
21 | COc1ccc(C2=CS(=O)(=O)c3cc4c(Nc5ccc6scnc6c5)ccnc4cc32)cc1 [Compound A23] | 1040
22 | O=S1(=O)C=C(O[C@@H]2CCOC2)c2cc3nccc(Nc4ccc5scnc5c4)c3cc21 [Compound A116] | 260
23 | O=S1(=O)C=C(NCCO)c2cc3nccc(Nc4ccc5scnc5c4)c3cc21 [Compound A18] | 310
24 | O=S1(=O)C(C2CC2)=Cc2cc3nccc(Nc4ccc5scnc5c4)c3cc21 [Compound A6] | 540
25 | Cc1[nH]nc(Nc2ccnc3cc4c(cc23)S(=O)(=O)C=C4C2CC2)c1C [Compound A96] | 590

Same assay, conditions: Homo sapiens, compound at 20 μM, TNF-α (40 ng/mL), Smac mimetic (100 nM), z-VAD (20 μM), 40 h, read-out: HT-29(20 μM) Survival

Row | SMILES | viability at 20 µM [%]
26 | CC1(C)C(O)(C2CC2)c2cc3nccc(Nc4ccc5scnc5c4)c3cc2S1(=O)=O (centres unmarked) [Compound B11] | 26.2
27 | CC1=Cc2cc3nccc(Nc4cnc5scnc5c4)c3cc2S1(=O)=O [Compound A45] | 27.6
28 | CC1=Cc2cc3nccc(Nc4ccc5c(c4)CNCC5)c3cc2S1(=O)=O [Compound A41] | 9.8
29 | CCC1(C)C(C)c2cc3nccc(Nc4ccc5scnc5c4)c3cc2S1(=O)=O (centres unmarked) [Compound B5] | 39.2
30 | Nc1cncc(Nc2ccnc3cc4c(cc23)S(=O)(=O)C=C4C2CC2)c1 [Compound A103] | 46.1
31 | CC1c2cc3nccc(Nc4ccc5scnc5c4)c3cc2S(=O)(=O)C1(C)CC1CC1 (centres unmarked) [Compound B7] | 19.1
32 | CC1=CS(=O)(=O)c2cc3c(Nc4cc(O)cc(C(F)(F)F)c4)ccnc3cc21 [Compound A82] | 11
33 | O=C1c2cc3nccc(Nc4ccc5scnc5c4)c3cc2S(=O)(=O)C12CC=CC2 [Compound B22] | 23.5
34 | CC1=Cc2cc3nccc(Nc4ccnc(N)c4)c3cc2S1(=O)=O [Compound A65, 8-((2-aminopyridin-4-yl)amino)-2-methylthieno[2,3-g]quinoline 1,1-dioxide] | 19.5
35 | O=S1(=O)c2cc3c(Nc4ccc5scnc5c4)ccnc3cc2OCC12CCC2 [Compound B26] | 72.6
36 | CC1=Cc2cc3nccc(Nc4ccc5ncnn5c4)c3cc2S1(=O)=O [Compound A68] | 11.9
37 | O=S1(=O)C=C(Br)c2cc3nccc(Nc4ccc5scnc5c4)c3cc21 [Compound A1, 8-(benzo[d]thiazol-5-ylamino)-3-bromothieno[2,3-g]quinoline 1,1-dioxide] | 4.5
38 | CC1=Cc2cc3nccc(Nc4ccc5c(c4)CN(C)CC5)c3cc2S1(=O)=O [Compound A42] | 23.1
39 | CC1=Cc2cc3nccc(Nc4cc(CN)ccc4C)c3cc2S1(=O)=O [Compound A50, 8-((5-(aminomethyl)-2-methylphenyl)amino)-2-methylthieno[2,3-g]quinoline 1,1-dioxide] | 17.9
40 | O=S1(=O)CC2(COC2)c2cc3nccc(Nc4ccc5scnc5c4)c3cc21 [Compound B28, 8′-(benzo[d]thiazol-5-ylamino)-2′H-spiro[oxetane-3,3′-thieno[2,3-g]quinoline] 1′, 1′-dioxide] | 15
41 | CC1=CS(=O)(=O)c2cc3c(Nc4ccc(O)cc4F)ccnc3cc21 [Compound A81] | 28.8
42 | CC1=Cc2cc3nccc(Nc4ccc(O)c(F)c4)c3cc2S1(=O)=O [Compound A54] | 31.9

Row | SMILES | viability at 20 µM [%]
43 | CC1=Cc2cc3nccc(Nc4ccc5c(c4)C(=O)NCC5)c3cc2S1(=O)=O [Compound A43] | 48.8
44 | N#Cc1cccc(Nc2ccnc3cc4c(cc23)S(=O)(=O)C=C4C2CC2)c1 [Compound A97] | 22.5
45 | CC1=Cc2cc3nccc(Nc4cc(O)cc(C#N)c4)c3cc2S1(=O)=O [Compound A61] | 29.2
46 | C=CCC1(C)C(=O)c2cc3nccc(Nc4ccc5scnc5c4)c3cc2S1(=O)=O (centres unmarked) [Compound B6] | 42.5
47 | CC1=Cc2cc3nccc(Nc4cc(N)ccc4C)c3cc2S1(=O)=O [Compound A49] | 60.3
48 | O=S1(=O)C=C(n2ccnc2)c2cc3nccc(Nc4ccc5scnc5c4)c3cc21 [Compound A34] | 15.5
49 | CN(C)CCOC1=CS(=O)(=O)c2cc3c(Nc4ccc5scnc5c4)ccnc3cc21 [Compound A112] | 37.2
50 | CC1=C(C)S(=O)(=O)c2cc3c(Nc4cc(O)ccc4C)ccnc3cc21 [Compound A88] | 41.3
51 | CC1(C)C(=O)c2c(cc3c(Nc4ccc5scnc5c4)ccnc3c2C2CC2)S1(=O)=O [Compound B12, 8-(benzo[d]thiazol-5-ylamino)-4-cyclopropyl-2,2-dimethylthieno[2,3-g]quinolin-3(2H)-one 1,1-dioxide] | 10.3
52 | N#Cc1cc(O)cc(Nc2ccnc3cc4c(cc23)S(=O)(=O)C=C4C2CC2)c1 [Compound A99] | 72.7
53 | CC(=O)Nc1ccc(C)c(Nc2ccnc3cc4c(cc23)S(=O)(=O)C(C)=C4)c1 [Compound A48] | 7.8
54 | CC1=CS(=O)(=O)c2cc3c(Nc4cc(O)ccc4C)ccnc3cc21 [Compound A76] | 33.8
55 | COc1ccc(C2CS(=O)(=O)c3cc4c(Nc5ccc6scnc6c5)ccnc4cc32)cc1 (centres unmarked) [Compound B24] | 16.5
56 | O=S1(=O)C=C(C2CC2)c2cc3nccc(Nc4n[nH]c5ccc(F)cc45)c3cc21 [Compound A90] | 36
57 | CC1=CS(=O)(=O)c2cc3c(Nc4n[nH]c(C)c4C)ccnc3cc21 [Compound A75] | 32.3
58 | CC1(C)C(=O)c2cc3nccc(Nc4ccc(O)c(C#N)c4)c3cc2S1(=O)=O [Compound B17] | 22.8

What follows are compounds tested on MEF cells (assay: MEF cell viability (necroptosis) assay). Settings: Mus musculus, TNF-α (40 ng/mL), Smac mimetic (100 nM), z-VAD (20 μM), 12 h.
Assay type: cell-based
Procedure: as §1, with “MEF cells” for “Human colon cancer HT-29 cells were used in a necroptosis assay. For this assay, HT-29 cells”, “96-well plate.” for “96-well plates.”, “for 12” for “for 40”, “cell survival” for “cell viability”, “FIG. 2” for “FIG. 1”, “compound A9.” for “compound A16.”

Row | SMILES | EC50 [nM]
59 | Cn1ccc(C2=CS(=O)(=O)c3cc4c(Nc5ccc6scnc6c5)ccnc4cc32)n1 [Compound A33] | 380
60 | CC(C)OC1=CS(=O)(=O)c2cc3c(Nc4ccc5scnc5c4)ccnc3cc21 [Compound A14] | 290
61 | C=C1c2cc3nccc(Nc4ccc5scnc5c4)c3cc2S(=O)(=O)C1(C)C [Compound B8, 8-(benzo[d]thiazol-5-ylamino)-2,2-dimethyl-3-methylene-2,3-dihydrothieno[2,3-g]quinoline 1,1-dioxide] | 1770
62 | O=S1(=O)C=C(c2ccccc2)c2cc3nccc(Nc4ccc5scnc5c4)c3cc21 [Compound A22] | 830
63 | COCCOC1=CS(=O)(=O)c2cc3c(Nc4ccc5scnc5c4)ccnc3cc21 [Compound A17] | 300
64 | CC1(C)C(=O)c2cc3nccc(Nc4ccc5scnc5c4)c3cc2S1(=O)=O [Compound B4, 8-(benzo[d]thiazol-5-ylamino)-2,2-dimethylthieno[2,3-g]quinolin-3(2H)-one 1,1-dioxide] | 9330

Each compound was assayed on L929 cells (assay: L929 cell viability (necroptosis) assay). Settings: Mus musculus, TNF-α (40 ng/mL), z-VAD (20 μM), 16 h.
Assay type: cell-based
Procedure: L929 cells were added to 96-well plate. The compounds at different concentrations (0.3, 1.0, 3.0, 10.0, 20.0 μM) were then preprocessed for two hours. TNF-α (40 ng/mL), and z-VAD (20 μM) were added, and the mixture was incubated for 16 h. Quantitative analysis of cell survival was conducted. DMSO pretreatment was used as a negative control. Concentration for 50% of maximal effect was calculated according to the curve of the survival rate measured at different concentrations. FIG. 3 depicts the EC50 curves of compound A3.

Row | SMILES | EC50 [nM]
65 | CC1=Cc2cc3nccc(Nc4ccc5scnc5c4)c3cc2S1(=O)=O [Compound A3] | 1940
